Assay results as given in PubChem BioAssay (NCI).
Values joined by “and” are separate entries in the source; they are usually repeats but may differ in a detail not shown here. Equal entries are not always repeated.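 The compound was tested at five concentrations on cells cultured in 96-well plates, with a 48-hour exposure period. Abbreviation: GI50, concentration required for 50% inhibition of growth. At the TGI there is no net growth.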

Assays:
Test in all cases: NCI anticancer screen, dose series, 48 h
NCI-H226 lung = system: NCI-H226 lung
UO-31 renal = system: UO-31 renal
NCI-H522 lung = system: NCI-H522 lung
UACC-62 melanoma = system: UACC-62 melanoma
EKVX NSCLC = system: EKVX NSCLC
MALME-3M melanoma = system: MALME-3M melanoma
RXF 393 renal = system: RXF 393 renal
SNB-19 CNS = system: SNB-19 CNS
U251 CNS = system: U251 CNS
ACHN renal = system: ACHN renal

SMILES	GI50 (NCI-H226 lung) [µM]	TGI (NCI-H226 lung) [µM]	GI50 (UO-31 renal) [µM]	TGI (UO-31 renal) [µM]	GI50 (NCI-H522 lung) [µM]	TGI (NCI-H522 lung) [µM]	GI50 (UACC-62 melanoma) [µM]	TGI (UACC-62 melanoma)	GI50 (EKVX NSCLC) [µM]	TGI (EKVX NSCLC) [µM]	GI50 (MALME-3M melanoma) [µM]	TGI (MALME-3M melanoma) [µM]	GI50 (RXF 393 renal) [µM]	TGI (RXF 393 renal) [µM]	GI50 (SNB-19 CNS) [µM]	TGI (SNB-19 CNS) [µM]	GI50 (U251 CNS) [µM]	TGI (U251 CNS) [µM]	GI50 (ACHN renal) [µM]	TGI (ACHN renal) [µM]
N.N.N.N.N.N.[I-].[Os]	> 100	> 100	> 100	> 100	> 100	> 100	> 100	> 100 µM	> 100	> 100	38.9	96.5	> 100	> 100	> 100	> 100	> 100	> 100	> 100	> 100
C/C=C/C=N/N(C(=O)c1cc([N+](=O)[O-])cc([N+](=O)[O-])c1)C1=NC(c2ccccc2)C(c2ccccc2)=NN1 (centres undefined)	–	> 100	–	> 100	–	57	–	> 100 µM	–	> 100	–	75.2	–	> 100	–	> 100	–	> 100	–	> 100
CNNCc1ccc(C(=O)NC(C)C)cc1	> 500	> 500	–	> 500	–	> 500	> 500	393 µM and > 500 µM	–	> 500	–	> 500	> 500	> 500	–	> 500	> 500	> 500	–	> 500
Clc1cc(Cl)c(Cl)c(-c2nc(-c3cccnc3)cs2)c1	27.4	85.8	31	> 100	9.22	38.3	24	73.3 µM	40.2	> 100	18.8	51.4	10.9	35.2	66.2	> 100	37.8	> 100	22.2	72.3
